Measured values taken from ChEMBL document CHEMBL1156067, “Pyrimidine-based antagonists of h-MCH-R1 derived from ATC0175: in vitro profiling and in vivo evaluation” (Bioorg Med Chem Lett, 2009).
pIC50: −log10 of the molar value. Active and inactive are the calls of the source. No cut-off for these calls is given here.

Key:
[1] = molecular target: T1, Melanin-concentrating hormone receptor 1 (Homo sapiens, UniProt Q99705); test: Antagonist activity at CART form of human MCH1 receptor expressed in HEK293 cells coexpressing Galphaq assessed as inhibition of MCH-induced intracellular calcium level by FLIPR assay; assay type: functional, cell-based
Target sequence in this assay (Q99705 whole entry, looked up): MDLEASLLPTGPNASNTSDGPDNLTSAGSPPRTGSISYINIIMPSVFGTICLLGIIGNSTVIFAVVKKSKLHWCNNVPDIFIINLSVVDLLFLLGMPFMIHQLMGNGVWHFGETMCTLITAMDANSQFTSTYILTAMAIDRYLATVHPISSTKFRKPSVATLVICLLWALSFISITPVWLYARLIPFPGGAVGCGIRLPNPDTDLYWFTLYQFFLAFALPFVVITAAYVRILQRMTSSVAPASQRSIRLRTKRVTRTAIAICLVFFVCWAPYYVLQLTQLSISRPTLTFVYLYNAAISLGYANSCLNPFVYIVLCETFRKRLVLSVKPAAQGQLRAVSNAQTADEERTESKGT

[2] = molecular target: T1, Melanin-concentrating hormone receptor 1; test: Antagonist activity at CART form of human MCH1 receptor expressed in HEK293 cells coexpressing Galphaq assessed as inhibition of MCH-induced intracellular calcium level up to 10 uM by FLIPR assay; assay type: functional, cell-based
Target sequence in this assay (Q99705 whole entry): as the sequence (Q99705 whole entry, looked up) above

[3] = molecular target: T2, 5-hydroxytryptamine receptor 2B (Homo sapiens, UniProt P41595); test: Displacement of [3H]rauwolsine from human 5HT2B receptor
T2 sequence (P41595 whole entry): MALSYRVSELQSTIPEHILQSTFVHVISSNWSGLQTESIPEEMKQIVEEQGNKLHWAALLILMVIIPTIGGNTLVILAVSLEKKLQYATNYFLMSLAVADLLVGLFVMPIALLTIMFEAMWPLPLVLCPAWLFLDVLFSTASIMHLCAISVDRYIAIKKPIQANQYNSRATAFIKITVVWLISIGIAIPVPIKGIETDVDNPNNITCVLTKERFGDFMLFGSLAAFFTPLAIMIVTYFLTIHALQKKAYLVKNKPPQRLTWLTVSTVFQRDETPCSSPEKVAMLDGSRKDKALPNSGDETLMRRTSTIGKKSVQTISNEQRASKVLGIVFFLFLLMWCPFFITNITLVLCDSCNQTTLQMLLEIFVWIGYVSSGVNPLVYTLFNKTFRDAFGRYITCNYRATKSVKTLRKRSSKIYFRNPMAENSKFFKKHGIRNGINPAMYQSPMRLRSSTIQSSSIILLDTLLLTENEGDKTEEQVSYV

[4] = molecular target: Histamine H1 receptor (Homo sapiens, UniProt P35367); test: Displacement of [3H]pyrilamine from human histamine H1 receptor
Chain of Histamine H1 receptor (P35367 whole entry): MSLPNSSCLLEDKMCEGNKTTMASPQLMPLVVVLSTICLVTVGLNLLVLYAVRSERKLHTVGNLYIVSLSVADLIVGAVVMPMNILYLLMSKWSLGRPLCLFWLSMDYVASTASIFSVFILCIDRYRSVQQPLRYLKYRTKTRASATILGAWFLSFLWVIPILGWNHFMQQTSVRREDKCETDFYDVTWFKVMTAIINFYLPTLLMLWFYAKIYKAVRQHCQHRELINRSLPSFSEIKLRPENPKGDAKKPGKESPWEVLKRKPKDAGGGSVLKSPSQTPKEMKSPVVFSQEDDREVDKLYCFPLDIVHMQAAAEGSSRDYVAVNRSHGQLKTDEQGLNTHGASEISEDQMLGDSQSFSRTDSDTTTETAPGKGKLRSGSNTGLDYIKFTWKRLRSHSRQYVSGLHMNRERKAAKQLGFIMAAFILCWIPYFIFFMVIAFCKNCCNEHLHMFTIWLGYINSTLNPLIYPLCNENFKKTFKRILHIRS

[5] = molecular target: T3, Alpha-2A adrenergic receptor (Homo sapiens, UniProt P08913); test: Displacement of [3H]MK-912 from human adrenergic alpha2A receptor
T3 sequence (P08913 whole entry): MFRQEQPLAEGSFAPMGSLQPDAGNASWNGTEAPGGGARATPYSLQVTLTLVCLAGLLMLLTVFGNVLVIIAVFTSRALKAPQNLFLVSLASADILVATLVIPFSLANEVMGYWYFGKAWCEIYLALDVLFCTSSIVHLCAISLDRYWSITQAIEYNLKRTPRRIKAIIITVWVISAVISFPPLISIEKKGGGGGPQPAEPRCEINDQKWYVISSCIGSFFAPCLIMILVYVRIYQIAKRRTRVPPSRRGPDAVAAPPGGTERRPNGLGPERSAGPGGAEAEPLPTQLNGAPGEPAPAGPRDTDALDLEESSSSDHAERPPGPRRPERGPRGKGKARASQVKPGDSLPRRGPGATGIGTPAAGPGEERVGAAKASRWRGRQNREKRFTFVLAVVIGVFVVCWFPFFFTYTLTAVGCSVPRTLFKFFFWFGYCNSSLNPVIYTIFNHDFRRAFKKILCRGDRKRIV

[6] = molecular target: T4, Alpha-1A adrenergic receptor (Homo sapiens, UniProt P35348); test: Displacement of [3H]prazosin from human adrenergic alpha1A receptor
T4 sequence (P35348 whole entry): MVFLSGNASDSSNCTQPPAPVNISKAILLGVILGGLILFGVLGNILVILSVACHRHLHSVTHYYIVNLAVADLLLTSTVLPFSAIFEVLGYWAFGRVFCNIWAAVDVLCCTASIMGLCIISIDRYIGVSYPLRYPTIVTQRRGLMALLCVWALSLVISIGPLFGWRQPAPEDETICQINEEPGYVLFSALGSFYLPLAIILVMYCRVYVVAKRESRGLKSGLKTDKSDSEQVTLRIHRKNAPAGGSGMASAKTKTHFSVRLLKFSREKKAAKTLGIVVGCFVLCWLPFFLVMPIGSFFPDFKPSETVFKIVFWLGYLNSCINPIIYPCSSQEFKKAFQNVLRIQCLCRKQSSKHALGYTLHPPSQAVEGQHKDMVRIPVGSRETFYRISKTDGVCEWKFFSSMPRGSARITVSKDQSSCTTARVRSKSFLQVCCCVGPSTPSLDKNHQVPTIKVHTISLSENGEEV

[7] = Plasma concentration in Sprague-Dawley rat at 10 mg/kg, po after 2 hrs; assay type: ADME, organism-based; design: dose 10 mg/kg, route oral
[8] = Drug level in Sprague-Dawley rat brain at 10 mg/kg, po after 4 hrs; assay type: ADME, organism-based; design: dose 10 mg/kg, route oral
[9] = molecular target: T2, 5-hydroxytryptamine receptor 2B; test: Displacement of [125I]LSD from human 5HT2B receptor
[10] = Ratio of drug level in brain to plasma in po dosed rat; assay type: ADME, organism-based
[11] = Plasma concentration in Sprague-Dawley rat at 10 mg/kg, po after 4 hrs; assay type: ADME, organism-based; design: dose 10 mg/kg, route oral
[12] = Drug level in Sprague-Dawley rat brain at 10 mg/kg, po after 2 hrs; assay type: ADME, organism-based; design: dose 10 mg/kg, route oral
[13] = molecular target: T5, 5-hydroxytryptamine receptor 1A (Homo sapiens, UniProt P08908); test: Inhibition of human 5HT1A
T5 sequence (P08908 whole entry): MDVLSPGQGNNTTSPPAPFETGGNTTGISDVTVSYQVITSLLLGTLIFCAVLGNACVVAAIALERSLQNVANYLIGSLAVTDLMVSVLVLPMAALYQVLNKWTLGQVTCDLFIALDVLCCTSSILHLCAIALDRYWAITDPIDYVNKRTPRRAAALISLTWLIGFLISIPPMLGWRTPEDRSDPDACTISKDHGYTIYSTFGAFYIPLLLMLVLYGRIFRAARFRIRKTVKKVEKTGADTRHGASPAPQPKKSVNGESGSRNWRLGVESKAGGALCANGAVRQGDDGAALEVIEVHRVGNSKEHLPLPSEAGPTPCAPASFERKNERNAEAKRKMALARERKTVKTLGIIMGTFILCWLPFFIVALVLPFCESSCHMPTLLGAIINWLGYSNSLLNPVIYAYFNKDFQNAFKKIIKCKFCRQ

[14] = test system: Rattus norvegicus; test: Reduction in food intake in diet-induced obese Wistar rat chronic feeding model at 6 mg/kg, po once daily after 8 days; assay type: functional, organism-based; design: dose 6 mg/kg
[15] = test system: Rattus norvegicus; test: Reduction in food intake in diet-induced obese Wistar rat chronic feeding model at 6 mg/kg, po once daily measured after 14 days; assay type: functional, organism-based; design: dose 6 mg/kg

Cc1cnc(N[C@H]2CC[C@@H](NC(=O)c3ccc(F)c(F)c3)CC2)nc1N(C)C
pIC50 [1]: 8.70

Cc1cc(N(C)C)nc(N[C@H]2CC[C@@H](NC(=O)c3cccc(Cl)c3)CC2)n1
pIC50 [1]: 8.19

CNc1nc(N[C@H]2CC[C@@H](CNC(=O)c3cc(C(F)(F)F)cc(C(F)(F)F)c3)CC2)ncc1C
pIC50 [1]: 6.70

Cc1cnc(N[C@H]2CC[C@@H](CNC(=O)c3cccc(C(F)(F)F)c3)CC2)nc1N(C)C
pIC50 [1]: 7.59

CCNc1nc(N[C@H]2CC[C@@H](CNC(=O)c3cc(C(F)(F)F)cc(C(F)(F)F)c3)CC2)ncc1C
Activity [2]: inactive

Cc1cnc(N[C@H]2CC[C@@H](CNC(=O)c3cc(C(F)(F)F)cc(C(F)(F)F)c3)CC2)nc1N1CCCC1
Activity [2]: inactive

Cc1cc(N(C)C)nc(N[C@H]2CC[C@@H](NC(=O)c3ccc(Cl)c(Cl)c3)CC2)n1
pIC50 [3]: 6.89
pIC50 [4]: 6.41
pIC50 [5]: 6.89
pIC50 [1]: 8.32
pIC50 [6]: < 5.00

Cc1cnc(N[C@H]2CC[C@@H](CNC(=O)c3cc(C(F)(F)F)cc(C(F)(F)F)c3)CC2)nc1N
pIC50 [1]: 6.22

CCc1cnc(N[C@H]2CC[C@@H](NC(=O)c3ccc(F)c(F)c3)CC2)nc1N(C)C
pIC50 [1]: 7.00

Cc1nc(N[C@H]2CC[C@@H](NC(=O)c3ccc(F)c(F)c3)CC2)nc(N(C)C)c1C
pIC50 [1]: 8.64

CN(C)CC1CCc2cc(NC(=O)c3ccc(-c4ccc(F)cc4)cc3)ccc2C1 (configuration not stated)
pIC50 [1]: 8.26

Cc1cnc(N[C@H]2CC[C@@H](CNC(=O)c3cc(Cl)cc(Cl)c3)CC2)nc1N(C)C
pIC50 [1]: 8.40

Cc1cnc(N[C@H]2CC[C@@H](NC(=O)c3ccc(F)c(F)c3)CC2)nc1NC(C)C
Activity [2]: inactive

Cc1cc(N(C)C)nc(N[C@H]2CC[C@@H](NC(=O)c3ccc(Cl)cc3)CC2)n1
pIC50 [3]: 6.77
pIC50 [4]: 6.10
pIC50 [5]: 6.14
pIC50 [1]: 7.80
pIC50 [6]: 5.52

CN(C)c1nc(N[C@H]2CC[C@@H](NC(=O)c3ccc(F)c(F)c3)CC2)nc2ccccc12
pIC50 [3]: 6.82
concentration at 2 h [7]: 109 ng/mL
concentration at 4 h [8]: 70 ng/g
pIC50 [4]: 6.82
pIC50 [5]: 6.98
pIC50 [9]: 8.02
Kp [10]: 0.5
concentration at 4 h [11]: 101 ng/mL
pIC50 [6]: 6.52
concentration at 2 h [12]: 55 ng/g
pIC50 [13]: 7.77

CNc1nc(N[C@H]2CC[C@@H](NC(=O)c3ccc(F)c(F)c3)CC2)ncc1C
Activity [2]: inactive

CC(C)CC(N(C)C)C1(c2ccc(Cl)cc2)CCC1 (configuration not stated)
Activity [14]: Active
Activity [15]: inactive

Cc1cccc(C(=O)N[C@H]2CC[C@@H](Nc3nc(C)cc(N(C)C)n3)CC2)c1
pIC50 [1]: 8.02
